The source of these data is a melting point compilation (Tetko et al.; mined from patent text by program, amines drawn as free bases though some values may be those of a salt).

Some results are limits rather than exact numbers.

The term melting point denotes the temperature of the solid-liquid transition. The molecule `CCCCCCCCCCC1(CCCCCCCCCC)c2cc(Br)ccc2-c2ccc(C=O)cc21` gave a melting point of 45 to 47 °C.
For `CCCC(COc1noc2ccc(Cl)cc12)NC=O` (stereo unspecified) the value was 107 to 108 °C; for `NNC(=O)C[C@H](O)COCc1ccccc1`, 96.9 °C.
For `O=C(/C=C/c1c[nH]c2ccccc12)c1ccccn1` the value was 141 to 145 °C.
The molecule `Cc1ccc2ccc(C(N)=O)cc2c1` returned a melting point of 210 to 212 °C.
For `COc1ccc(-c2cc(-c3ccccc3)c(-c3ccccc3)s2)cc1F` the value was 118 to 122 °C; for `COCCCNC(=O)C(C)(C(C)C)C(C)C`, 10 °C; for `O=C(O)c1cccc(C(=O)Nc2cccc3cc(Br)cnc23)c1`, 275 to 277 °C.
Then `COc1ccc(C(=O)Nc2cccnc2)c2c1oc1ccccc12`, with 226 °C.
Then `CC(=O)c1cc2c(cc1NC(=O)c1cccc3ccccc13)OCO2`, with 143 to 144 °C; and `NS(=O)(=O)c1cc2c3c(cc([N+](=O)[O-])c2cc1[N+](=O)[O-])N(C(=O)C(F)(F)F)CC3CCl` (stereo unspecified), with 201 to 204 °C; and `Cc1cccc(CNC(=O)c2ccc3n2Cc2ccccc2N(C(=O)c2ccc(-c4ccccc4C)c(C)c2)C3)c1`, with 130 to 132 °C.
With `COc1cccc(C(=O)C=Cc2ccc(OC)cc2OC)c1`, the melting point lay within 75.6 to 78.9 °C.
Then `COC(=O)c1cnn(O)c1`, with 175 °C; and `O=C1CCC(CCN2CC(N3CCOCC3)C2)(c2ccc(Cl)c(Cl)c2)CN1Cc1ccc(-c2ccccc2)cc1` (stereo unspecified), with 72 to 82 °C; and `Cc1c(C)c(-c2cccc(CO)c2)c(C)c(C)c1O`, with 152 to 153 °C.
For the molecule `CC(C)(C)c1ccc2c(C=O)c3ccccc3c(Cl)c2c1`, the melting point is 143 to 147 °C.
For `Nc1ccc(NC(=O)C(=O)N2CCC(Cc3ccc(F)cc3)CC2)cc1` the value was 141 to 143 °C; for `ClC(Cl)=C1OC(C(Cl)(Cl)Cl)Oc2ccc(-c3nnn[nH]3)cc21` (stereo unspecified), 222 °C.
Then `COC(=O)c1cc2cc(C(=O)CN3CCN(c4ccncc4)CC3)ccc2o1`, with 173 to 177 °C; and `CCCc1nn(CC)c(C(=O)O)c1Cc1ccc(-c2ccccc2NS(=O)(=O)C(F)(F)F)cc1`, with 68 to 72 °C; and `Cc1c([N+](=O)[O-])cnc(Oc2ccc(Cl)c(C(F)(F)F)c2)c1Br`, with 73 to 74 °C.
Then `CC(=O)OC1C(=O)NC1c1ccco1` (stereo unspecified), with 118 to 119 °C; and `c1ccc2sc(-c3nc(COc4ccc(CCCn5ccnc5)cc4)co3)cc2c1`, with 149 to 150 °C; and `COc1ccc([C@H]2CC[C@H](c3ccc(OC)c(OC)c3)O2)cc1OC` (relative stereo), with 114 to 115 °C.
Molecule `Cc1c[nH]c(-c2ccc(OCC(O)CNC3CC3)cc2)n1` (stereo unspecified) showed a melting point of 150 to 154 °C.
For `COc1cc(N)c(Cl)cc1-c1nn(C2CCN(CCc3ccccc3)CC2)c(=O)o1` the value was 184 °C; for `CN1C(=O)CCC2(C)c3ccc(Sc4nccc5ccccc45)cc3CCC12` (stereo unspecified), 196 to 199 °C; for `CCCOc1ccccc1-c1nc2nc(N(C)C)ncc2c(=O)[nH]1`, 178 °C.
For `CN(C)Cc1ccc2nc(NC(=O)c3ccc(C(C)(C)C)cc3)cn2c1`, the melting point fell in the range of 236 to 237 °C.
For `Cn1ccc(S(=O)(=O)NC(C)(C)C)c1C=O` the value was 102 to 103 °C; for `Clc1ccc(CN2CCN=C2Cc2ccccc2)c(Cl)c1`, 185 to 189 °C; for `CCCCNc1ccc(OC)c(Cl)c1Cl`, 47 to 49 °C.
Regarding `N#Cc1ccc(CCc2cc(Cl)ccc2OCc2ccccc2)cc1`, the melting point fell in the range of 77 to 79 °C.
Turning to `CC(C)(C)OC(=O)n1cc2c(c1C=O)OCCO2`, the melting point lay in the range of 94 to 95 °C.
The molecule `COC(=O)c1ccc(OC[C@H](C)N(C)C(=O)C(F)(F)F)cc1` showed a melting point of 73 to 75 °C.
Then `OC1(c2nccc3ccccc23)CCNCC1`, with 138 to 140 °C.
The molecule `O=C(O)c1cccc(-c2ccc3c(c2)N(Cc2cccc(Cl)c2Cl)CC3)c1` registered a melting point of 185 to 186 °C.
For `CN1C(=O)CC[C@]2(C)c3ccc(C#Cc4ccccc4)cc3CC[C@@H]12` the value was 205 to 208 °C; for `CCOCCNC(=O)n1sc(OCC)nc1=O`, below 50 °C; for `COC(=O)NC1=NCC(c2ccccc2C)N1C` (stereo unspecified), 158 to 161 °C.
Then `COc1ccc(C(=O)c2ccc(CC(=O)O)n2C)cc1`, with 170 to 171 °C; and `C=CCNc1nc(NC(=O)C(C)(C)C)c2scc(C)c2n1`, with 88 to 89 °C; and `Clc1ccc2c(c1)NCc1ccccc1S2`, with 125 to 127 °C.
For `O=C(NCCC12CC3CC(CC(C3)C1)C2)c1cc(-c2ccccc2C(=O)O)ccc1Cl` the value was 114 to 117 °C; for `COc1ccccc1N1CCN(C(=O)CCCN2CC=C(c3c[nH]c4cc(F)ccc34)CC2)CC1`, 118 to 120 °C.
Consider `Cc1cc(=O)[nH]c2c3c(cc(O)c12)OC(C)C(C)C3=O` (stereo unspecified), for which the melting point is 300 °C.
For `Cc1c2n(c3ccccc13)CC(C)(C)C2O` (stereo unspecified) the value was 82 to 85 °C.
The molecule `NC(=O)c1ccc(-c2ccc(C(CC3CCOCC3)c3ccc(S(=O)(=O)C4CC4)cc3)[nH]2)nc1` (stereo unspecified) showed a melting point of 136 to 138 °C.
For `CSC1=Nc2ccncc2S(=O)(=O)N1C` the value was 135 to 138 °C.
For the molecule `CN(C)c1ccc(C(=O)C(F)c2cccc(Cl)c2)cc1` (stereo unspecified), the melting point fell in the range of 90 to 92 °C.
Then `COCc1nnc(-c2ccc3occ(-c4cccc(OC(F)(F)F)c4)c3c2)o1`, with 90 to 91 °C; and `CCCOc1ccccc1-c1nc2ncncc2c(=O)[nH]1`, with 142 to 143 °C; and `Cc1cccc2nc3n(c(=O)c12)-c1ccc(F)cc1C3=O`, with 300 to 301 °C.
For `N#CC(c1cccc(Cl)c1)N1CCOCC1` (stereo unspecified) the value was 72 to 73 °C.
Then `CC(=O)CCc1ccc2c(c1)Cc1cc([N+](=O)[O-])ccc1-2`, with 159 to 162 °C; and `CCc1nc2cc(C(F)(F)F)c(Cl)cc2n1-c1ccc(C[C@H](C)OC(=O)NS(=O)(=O)c2ccc(C)cc2)cc1`, with 200 °C.
For `COc1ccc(-c2cnc(N)c(Sc3cc(C(F)(F)F)cc(C(F)(F)F)c3)n2)cc1`, the melting point lay within 136 to 138 °C.
On to `CN1CC2c3cccn3Cc3ccc(Cl)cc3N2C(=O)C1=O` (stereo unspecified), for which the melting point amounted to 203 °C.
For the molecule `CCN(CC)C(=O)n1cc(F)c(S(=O)(=O)c2c(C)cc(C)cc2C)n1`, the melting point lay in the range of 109 to 111 °C.
Then `N#CN=C(Nc1cccnc1)NC(NC(=O)c1ccc(Cl)cc1)C1CCCCC1` (stereo unspecified), with 190 to 192 °C; and `N#Cc1c(N2CCNCC2)c2cc(Cl)ccc2n(Cc2ccccc2)c1=O`, with 156 °C.
With `CC(C)c1nn(-c2ccc(C(F)(F)F)cn2)cc1CCCOc1cc(CCC(=O)O)n(C(C)C)n1`, the melting point lay in the range of 130 to 131 °C.
For `COC(=O)c1ccc2c(c1)C1(O)C(=O)c3ccccc3C1(O)O2` (stereo unspecified) the value was 220 to 223 °C; for `OC(CCl)(Cc1ccccc1Cl)c1ccc(Cl)cc1` (stereo unspecified), 64 to 69 °C; for `CCN(CC)c1ccc(C(=O)C(C)(C)N2CCOCC2)cc1`, 86 to 89 °C.
Then `COC1=C(OC)C(=O)C(CCCCCCCCCCCCC(=O)O)=C(C)C1=O`, with 62 °C.
Then `CCCN(CCc1coc2c(OC)cccc12)C1COc2c(F)ccc(C(N)=O)c2C1` (stereo unspecified), with 125 to 132 °C.
`Cc1ccc(-c2ccc(/C=C/C(=O)Nc3ccc(CN(C)C4CCOCC4)cc3)s2)cc1` yielded a melting point of 199 to 201 °C.
For `O=C(N[C@@H](CO)c1ccccc1)c1cccc(I)c1` the value was 154 to 156 °C; for `Cn1nc(N2c3ccccc3C[C@H]2C(=O)O)ccc1=O`, 245 to 247 °C.
Then `CCN(CC)CCC1CCCN1CCNC(=O)N1c2ccccc2C(=O)Nc2cccnc21` (stereo unspecified), with 127 to 128 °C.
Consider `Cc1cccc(NS(=O)(=O)c2ccc(OCc3nc(-c4ccccc4)oc3C)cc2)c1C(=O)O`, for which the melting point was in the range of 167 to 170 °C.
With `CNC(=N[N+](=O)[O-])NCCSCc1[nH]cnc1C`, the melting point was in the range of 112 to 114 °C.
For `CN1CCC(=C2c3cc(C=O)n(C)c3CCn3ncnc32)CC1` the value was 204 °C; for `CCCOc1ccc(S(=O)(=O)N2CCN(CC)C(C(=O)OCC)C2)cc1-c1nc2cc3nc[nH]c3cc2c(=O)[nH]1` (stereo unspecified), 158 to 163 °C.
`Cc1ccccc1NC(=O)CN1CC2CCC(C1)N2S(=O)(=O)c1cccc(C#N)c1` registered a melting point of 166 to 168 °C.
For `COc1ccc(-c2cc(=O)n(Cc3ccncc3)nc2-c2ccc(OC)cc2)cc1` the value was 182 to 183 °C.
Then `CC(C)N1CCN(Cc2ccc3c(c2)-c2[nH]nc(-c4ccsc4)c2C3)CC1`, with 182 to 185 °C; and `CC(Cc1cccc2ccccc12)(Cc1cccc2ccccc12)C(=O)NC(C)(Cc1c[nH]c2ccccc12)C(=O)O` (stereo unspecified), with 195 to 197 °C; and `CCOC(=O)C(=CNn1cnnc1)C(=O)c1cc(F)c(F)cc1F`, with 239 to 240 °C.
In turn, `CCCc1nc(C)c2nnc3cc(OC)ccc3n12` came in with a melting point of 159 to 162 °C.
For `O=C(O)CCCCCCCCCCCCC(=O)OCc1ccccc1` the value was 73.5 to 74 °C.
For `COC(=O)Cn1nnc(-c2ccc(C=Cc3ccc(-c4nc5ccccc5o4)cc3)cc2)c1C#N` the value was 248 to 249 °C; for `CC(C)[C@H](NCc1ccc(I)cc1)C(=O)O`, 256 to 258 °C.
For `Cc1ccc(C(=O)Nc2ccccc2)cc1[N+](=O)[O-]` the value was 147 to 148 °C.
For the molecule `CC(=O)c1ccc(CC(=O)OC(C)(C)C)cc1`, the melting point was in the range of 50 to 52 °C.
Then `O=C1Nc2ccccc2C12CCCC(Br)C2` (stereo unspecified), with 196 to 199 °C; and `CC(C)CCCC(C)CCCC(C)CCCC(C)CCP(=O)(O)O` (stereo unspecified), with 69 to 72 °C; and `CC(C)=NOCc1nc2c(N)nc3cc(Br)ccc3c2s1`, with 211 to 213 °C.
For `CCN1CC(=O)C(C#N)=C1N` the value was 278 to 280 °C.
